According to patent publication US20060135773A1, “Trisubstituted nitrogen modulators of tyrosine phosphatases” (priority 2004, published 2006):
pIC50: −log10 of the molar value.

Molecular target: T1, PTP-1B (Homo sapiens, UniProt P18031)
T1 construct: PTP-1B (purified, 1 mg/mL) as a 1:250 dilution
T1 sequence (P18031 1-321 limits assumed): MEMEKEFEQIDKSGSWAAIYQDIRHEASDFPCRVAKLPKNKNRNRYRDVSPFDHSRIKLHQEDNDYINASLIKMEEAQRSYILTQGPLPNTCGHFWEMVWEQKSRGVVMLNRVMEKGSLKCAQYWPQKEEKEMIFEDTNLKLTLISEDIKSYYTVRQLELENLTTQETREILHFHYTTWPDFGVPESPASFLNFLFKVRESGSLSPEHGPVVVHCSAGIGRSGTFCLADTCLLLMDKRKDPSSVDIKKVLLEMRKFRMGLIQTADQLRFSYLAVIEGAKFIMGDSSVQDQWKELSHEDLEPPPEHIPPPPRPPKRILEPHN
Test: pNPP tyrosine phosphatase inhibition assay, PTP-1B
Assay type: biochemical
Conditions: pNPP assay, PTP-1B; read-out: Activity Class (IC50 ranges)
Procedure, shortened: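 Test compounds were screened at two final levels, 31.3 and 10 µM, against 4 µg/mL purified PTP-1B. The substrate was 10 mM p-nitrophenyl phosphate, with incubation for 10 min at 30°C before a K2CO3 quench. Activity was taken from A405.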

| Molecule | pIC50 |
| --- | --- |
| O=P(O)(O)C(F)(F)c1ccc(CN(Cc2ccc(C(F)(F)P(=O)(O)O)cc2)S(=O)(=O)c2ccccc2C(F)(F)F)cc1 [Compound 90, [(4-{[[4-(Difluoro-phosphono-methyl)-benzyl]-(2-trifluoromethyl-benzenesulfonyl)-amino]-methyl}-phenyl)-difluoro-methyl]-phosphonic acid] | 6.30 to 6.60 |
| Methyl 5-{4-[({[4-(difluorophosphonomethyl)-3-chlorophenyl]methyl}[(2-methoxyphenyl)sulfonyl]amino)methyl]phenyl}-2-methoxybenzoate [Compound 205] | 6.60 to 7.00 |
| 5-{4-[({[4-(difluorophosphonomethyl)-3-chlorophenyl]methyl}[(2-methoxyphenyl)sulfonyl]amino)methyl]phenyl}-2-methoxybenzoic acid [Compound 207] | > 7.00 |
| COc1ccccc1S(=O)(=O)N(Cc1ccc(C(F)(F)P(=O)(O)O)c(Cl)c1)Cc1ccccc1OC(C)C [Compound 211, {[4-(difluorophosphonomethyl)-3-chlorophenyl]methyl}[(2-methoxyphenyl)sulfonyl]{[2-(methylethoxy)phenyl]methyl}amine] | 6.30 to 6.60 |
| COc1ccccc1S(=O)(=O)N(Cc1ccc(OCc2nnn[nH]2)cc1)Cc1ccc(OCc2nnn[nH]2)cc1 [Compound 138, 2-Methoxy-N,N-bis-[4-(1H-tetrazol-5-ylmethoxy)-benzyl]-benzenesulfonamide] | < 4.60 |
| COc1ccccc1S(=O)(=O)N(Cc1ccc(C(F)(F)P(=O)(O)O)cc1)Cc1ccc(C(F)(F)P(=O)(O)O)cc1 [Compound 85, [(4-{[[4-(Difluoro-phosphono-methyl)-benzyl]-(2-methoxy-benzenesulfonyl)-amino]-methyl}-phenyl)-difluoro-methyl]-phosphonic acid] | 6.30 to 6.60 |
| COc1ccccc1S(=O)(=O)N(Cc1ccc(-c2cccc(C#N)c2)cc1)Cc1ccc(C(F)(F)P(=O)(O)OCOC(=O)C(C)(C)C)c(Cl)c1 [Compound 227, 2,2-Dimethyl-propionic acid [(2-chloro-4-{[(3′-cyano-biphenyl-4-ylmethyl)-(2-methoxy-benzenesulfonyl)-amino]-methyl}-phenyl)-difluoro-methyl]-hydroxy-phosphinoyloxymethyl ester] | < 4.60 |
| COc1ccccc1S(=O)(=O)N(Cc1ccc(C(F)(F)P(=O)(O)O)c(Cl)c1)CC12CC3CC(CC(C3)C1)C2 [Compound 201, (Adamantanylmethyl){[4-(difluorophosphonomethyl)-3-chlorophenyl]methyl}[(2-methoxyphenyl)sulfonyl]amine] | 6.30 to 6.60 |

The remaining lines, values ahead:

| pIC50 | Molecule |
| --- | --- |
| < 4.60 | COc1ccc(S(=O)(=O)N(Cc2ccc(C(=O)C(=O)O)cc2)Cc2ccc(S(C)(=O)=O)cc2)c(OC)c1 [Compound 111, (4-{[(2,4-Dimethoxy-benzenesulfonyl)-(4-methanesulfonyl-benzyl)-amino]-methyl}-phenyl)-oxo-acetic acid] |
| 4.60 to 5.60 | CS(=O)(=O)N(Cc1ccc(C(F)(F)P(=O)(O)O)cc1)Cc1ccc(C(F)(F)P(=O)(O)O)cc1 [Compound 131, {[4-({[4-(Difluoro-phosphono-methyl)-benzyl]-methanesulfonyl-amino}-methyl)-phenyl]-difluoro-methyl}-phosphonic acid] |
| 4.60 to 5.60 | COC(=O)c1ccccc1S(=O)(=O)N(Cc1ccc(C(F)(F)P(=O)(O)O)cc1)Cc1ccc(C(F)(F)P(=O)(O)O)cc1 [Compound 92, 2-{Bis-[4-(difluoro-phosphono-methyl)-benzyl]-sulfamoyl}-benzoic acid methyl ester] |
| > 7.00 | O=P(O)(O)C(F)(F)c1ccc(CN(Cc2ccc(-c3cccc(-c4nn[nH]n4)c3)cc2)S(=O)(=O)c2ccc(F)cc2Cl)cc1Cl [Compound 169, {[2-Chloro-4-({(2-chloro-4-fluoro-benzenesulfonyl)-[3′-(2H-tetrazol-5-yl)-biphenyl-4-ylmethyl]-amino}-methyl)-phenyl]-difluoro-methyl}-phosphonic acid] |
